Data: patent publication EP0918774B9, “ANDROGEN RECEPTOR MODULATOR COMPOUNDS AND METHODS” (LIGAND PHARMACEUTICALS INCORPORATED, priority 1996, dated 1997)
Read-outs that look alike come from different tables or passages of the source.

What was measured:
human AR [1] = target: T1, human AR (Homo sapiens, UniProt P10275); experiment: cell-based; format: cell-based; conditions: for AR Antagonist CV-1 Cells Efficacy (%): % of maximal inhibition, fixed DHT at EC50; for AR Agonist CV-1 Cells Efficacy (%): percent maximal response relative to reference agonist DHT; for AR agonist/antagonist profile (in words): co-transfection assay, summary of Tables 1-2
T1 construct: expressed in transfected cells; host or cells: CV-1 cells (African green monkey kidney fibroblasts), transient calcium phosphate transfection
T1 sequence (P10275 1-920): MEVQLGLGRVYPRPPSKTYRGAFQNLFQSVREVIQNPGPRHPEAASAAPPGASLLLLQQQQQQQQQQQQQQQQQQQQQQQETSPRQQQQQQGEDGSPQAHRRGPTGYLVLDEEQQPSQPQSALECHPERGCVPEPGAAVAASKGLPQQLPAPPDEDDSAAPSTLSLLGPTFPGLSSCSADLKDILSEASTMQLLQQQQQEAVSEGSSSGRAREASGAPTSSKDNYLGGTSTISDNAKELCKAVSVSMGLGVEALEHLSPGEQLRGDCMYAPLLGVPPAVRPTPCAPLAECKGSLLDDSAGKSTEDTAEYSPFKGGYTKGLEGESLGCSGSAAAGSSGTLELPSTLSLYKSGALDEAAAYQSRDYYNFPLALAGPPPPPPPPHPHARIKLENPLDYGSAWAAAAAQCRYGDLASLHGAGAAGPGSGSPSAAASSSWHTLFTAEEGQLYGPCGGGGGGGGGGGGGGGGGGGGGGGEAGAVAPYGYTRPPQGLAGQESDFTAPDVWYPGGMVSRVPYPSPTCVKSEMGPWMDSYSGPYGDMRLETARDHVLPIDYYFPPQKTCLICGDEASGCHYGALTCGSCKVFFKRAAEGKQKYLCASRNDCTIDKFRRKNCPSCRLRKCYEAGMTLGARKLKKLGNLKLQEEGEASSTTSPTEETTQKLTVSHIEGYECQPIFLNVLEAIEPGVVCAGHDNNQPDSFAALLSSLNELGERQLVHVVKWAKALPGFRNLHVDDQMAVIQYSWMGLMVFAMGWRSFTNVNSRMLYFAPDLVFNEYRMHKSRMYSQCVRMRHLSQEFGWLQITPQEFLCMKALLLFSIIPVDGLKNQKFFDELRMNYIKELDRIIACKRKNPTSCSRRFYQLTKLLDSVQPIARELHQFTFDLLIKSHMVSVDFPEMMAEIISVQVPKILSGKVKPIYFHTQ
Description: The co-transfection assay provides a method for identifying functional agonists and partial agonists which mimic, or antagonists which inhibit, the effect of native hormones, and quantifying their activity for responsive IR proteins. In this regard, the co-transfection assay mimics an in vivo system in the laboratory. Importantly, activity in the co-transfection assay correlates very well with known in vivo activity, such that the co-transfection assay functions as a qualitative and quantitative predictor of a tested compounds in vivo pharmacology. See, e.g., T. Berger et al. 41 J. Steroid Biochem. Molec.
(§1) CV-1 cells (African green monkey kidney fibroblasts) were cultured in the presence of Dulbecco's Modified Eagle Medium (DMEM) supplemented with 10% charcoal resinstripped fetal bovine serum then transferred to 96-well microtiter plates one day prior to transfection.
The reporter plasmid, MTV-LUC, contains the cDNA for firefly luciferase (LUC) under control of the mouse mammary tumor virus (MTV) long terminal repeat, a conditional promoter containing an androgen response element. See e.g, Berger et al. supra. In addition, pRS-β-Gal, coding for constitutive expression of E. colβ-galactosidase (β-Gal), was included as an internal control for evaluation of transfection efficiency and compound toxicity.
(§2) Three to four replicates were used for each sample.
(§3) After 40 hours, the cells were washed with PBS, lysed with a Triton X-100-based buffer and assayed for LUC and β-Gal activities using a luminometer or spectrophotometer, respectively. For each replicate, the normalized response (NR) was calculated as: LUC response/β-Gal rate where β-Gal rate = β-Gal•1x10^-5/β-Gal incubation time.

human AR [2] = target: T1, human AR; experiment: cell-based; format: binding
PR = target: T2, PR (Homo sapiens, UniProt P06401); experiment: Co-transfection assay, PR agonist mode; format: cell-based; parameters: expressed in transfected cells; host or cells: CV-1 cells
T2 sequence (P06401 1-933): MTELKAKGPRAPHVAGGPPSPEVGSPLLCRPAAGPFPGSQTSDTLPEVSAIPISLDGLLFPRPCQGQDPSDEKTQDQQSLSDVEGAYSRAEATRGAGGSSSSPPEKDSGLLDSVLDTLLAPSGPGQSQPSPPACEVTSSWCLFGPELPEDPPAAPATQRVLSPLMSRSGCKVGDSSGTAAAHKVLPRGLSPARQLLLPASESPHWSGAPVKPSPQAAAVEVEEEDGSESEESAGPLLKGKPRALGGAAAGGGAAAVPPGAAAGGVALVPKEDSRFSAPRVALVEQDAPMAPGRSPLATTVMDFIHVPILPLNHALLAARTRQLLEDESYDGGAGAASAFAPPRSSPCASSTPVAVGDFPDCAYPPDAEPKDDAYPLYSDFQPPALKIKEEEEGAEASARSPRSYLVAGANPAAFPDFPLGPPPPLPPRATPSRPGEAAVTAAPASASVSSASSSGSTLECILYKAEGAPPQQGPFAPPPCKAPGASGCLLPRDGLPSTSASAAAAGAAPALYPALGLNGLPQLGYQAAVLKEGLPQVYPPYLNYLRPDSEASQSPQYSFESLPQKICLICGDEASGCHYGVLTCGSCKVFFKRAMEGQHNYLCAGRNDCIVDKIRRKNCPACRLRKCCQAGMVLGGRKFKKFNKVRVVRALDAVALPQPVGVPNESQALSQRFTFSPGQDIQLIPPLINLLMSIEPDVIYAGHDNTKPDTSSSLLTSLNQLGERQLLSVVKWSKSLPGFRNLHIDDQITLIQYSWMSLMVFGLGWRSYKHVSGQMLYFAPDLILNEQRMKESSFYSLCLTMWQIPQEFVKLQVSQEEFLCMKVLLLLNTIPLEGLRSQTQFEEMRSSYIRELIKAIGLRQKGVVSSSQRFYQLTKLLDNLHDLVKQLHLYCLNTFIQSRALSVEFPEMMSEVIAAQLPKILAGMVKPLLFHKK
Method: as §1, §2, §3

Compound | EC50 (human AR [1]) | IC50 (human AR [1]) | AR Antagonist CV-1 Cells Efficacy (%) (human AR [1]; na = not active) | AR Agonist CV-1 Cells Efficacy (%) (human AR [1]; na = not active) | Ki (human AR [2]) | EC50 (PR) | EC50 (human AR [1]; read-out: AR Potency Agon, Table 2, na = not active) | AR agonist/antagonist profile (in words) (human AR [1]) | EC50 (human AR [1]; read-out: AR Agonist CV-1 Cells Potency, agonist potency EC50, na = not active)
CC1(C)CCc2cc3c(C(F)F)c(F)c(=O)[nH]c3cc2N1 [Compound 106, 6-Difluoromethyl-7-fluoro-1,2,3,4-tetrahydro-2,2-dimethyl-8-pyridono[5,6-g]quinoline] | > 10000 nM | 60 nM | 83% | na (not active (i.e. efficacy of <20 and potency of >10,000)) | – | – | – | – | –
Cn1c(=O)c(F)c(C(F)(F)F)c2cc3c(cc21)N1CCCC1(C)CC3 (racemic) [Compound 104, (R/S)-3-Fluoro-6,7,7a,11-tetrahydro-1,7a-dimethyl-4-trifluoromethyl-2-pyridono[5.6-g]pyrrolidino[1,2-a]quinoline] | > 10000 nM | – | 86% | na (not active (i.e. efficacy of <20 and potency of >10,000)) | 159 nM | > 10000 nM | > 10000 nM | – | –
CC1=CC(C)(C)Nc2cc3[nH]c(=O)c(F)c(C(F)(F)F)c3cc21 [Compound 111, 7-Fluoro-1,2-dihydro-2,2,4-trimethyl-6-trifluoromethyl-8-pyridono[5,6-g]quinoline] | – | – | 50% | 20% | 804 nM | – | – | mixed AR agonists/antagonists | –
Cn1c(=O)c(F)c(C(F)(F)F)c2cc3c(cc21)NC(C)(C)CC3 [Compound 107, 7-Fluoro-1,2,3,4-tetrahydro-2,2,9-trimethyl-6-trifluoromethyl-8-pyridono[5,6-g]quinoline] | > 10000 nM | 47 nM | 79% | na (not active (i.e. efficacy of <20 and potency of >10,000)) | – | – | – | – | –
CN1c2cc3c(cc2CCC1(C)C)c(C(F)(F)F)c(F)c(=O)n3C [Compound 109, 7-Fluoro-1,2,3,4-tetrahydro-1,2,2,9-tetramethyl-6-trifluoromethyl-8-pyridono[5,6-g]quinoline] | > 10000 nM | 12 nM | 86% | na (not active (i.e. efficacy of <20 and potency of >10,000)) | – | – | – | highly selective AR antagonists | –
CC1=CC(C)(C)Nc2c1cc1c(C(F)(F)F)c(F)c(=O)[nH]c1c2C [Compound 114, 7-Fluoro-1,2-dihydro-2,2,4,10-tetramethyl-6-trifluoromethyl-8-pyridono[5,6-g]quinoline] | > 10000 nM | – | 90% | na (not active (i.e. efficacy of <20 and potency of >10,000)) | – | – | – | – | –
Cc1c2c(cc3c(C(F)(F)F)c(F)c(=O)[nH]c13)C(C)CC(C)(C)N2C (centres unmarked) [Compound 117, 7-Fluoro-1,2,3,4-tetrahydro-1,2,2,4,10-pentamethyl-6-trifuluoromethyl-8-pyridono[5,6-g]quinoline] | – | – | 81% | na (not active (i.e. efficacy of <20 and potency of >10,000)) | – | – | – | – | > 10000 nM
Cc1c2c(cc3c(C(F)(F)F)c(F)c(=O)[nH]c13)C(C)CC(C)(C)N2 (centres unmarked) [Compound 115, 7-Fluoro-1,2,3,4-tetrahydro-2,2,4,10-tetramethyl-6-trifluoromethyl-8-pyridono[5,6-g]quinoline] | > 10000 nM | 101 nM | 88% | na (not active (i.e. efficacy of <20 and potency of >10,000)) | – | – | – | – | –
Cc1c2c(cc3c(C(F)(F)F)c(F)c(=O)n(C)c13)C(C)CC(C)(C)N2 (centres unmarked) [Compound 116, 7-Fluoro-1,2,3,4-tetrahydro-2,2,4,9,10-pentamethyl-6-trifluoromethyl-8-pyridono[5,6-g]quinoline] | > 10000 nM | – | 20% | na (not active (i.e. efficacy of <20 and potency of >10,000)) | – | – | – | – | –
CCC1(CC)CCc2cc3c(C(F)(F)F)c(F)c(=O)[nH]c3cc2N1 [Compound 120, 2,2-Diethyl-7-fluoro-1,2,3,4-tetrahydro-6-trifluoromethyl-8-pyridono[5,6-g]quinoline] | – | 25 nM | 61% | – | – | – | – | – | –
CC1CC(C)(C)Nc2cc3[nH]c(=O)c(F)c(C(F)(F)F)c3cc21 (centres unmarked) [Compound 112, 7-Fluoro-1,2,3,4-tetrahydro-2,2,4-trimethyl-6-trifluoromethyl-8-pyridono[5,6-g]quinoline] | – | – | 49% | – | – | – | – | highly selective AR antagonists | –
CC1CC(C)(C)n2oc(=O)c3c4[nH]c(=O)cc(C(F)(F)F)c4cc1c32 (centres unmarked) [Compound 113, 1,10-[1,3-dihydro-3-oxo-(2,1-isoxazolyl)]-1,2,3,4-tetrahydro-2,2,4,10-tetramethyl-6-trifluoromethyl-8-pyridono[5,6-g]quinoline] | – | – | 48% | 26% | 17 nM | – | – | mixed AR agonists/antagonists | –
